Measurements reported in the NIST ThermoML archive (doi:10.1016/j.jct.2011.02.018).

Test: xn = mol fraction of the nth substance listed
Conditions: 101 kPa, Liquid; for viscosity: Concentric cylinders viscometry; for mass density: Vibrating tube method

COC(C)(C)C [2-methoxy-2-methylpropane] + CCO
Conditions | mass density, 293.15 K [kg/m3] | mass density, 298.15 K [kg/m3] | viscosity, 293.15 K [mPa·s] | viscosity, 298.15 K [mPa·s]
x1 = 0.0097 | 789.03 | 784.78 | 1.174 | 1.067
x1 = 0.0198 | 788.28 | 783.99 | 1.146 | 1.043
x1 = 0.0301 | 787.54 | 783.23 | 1.118 | 1.027
x1 = 0.0402 | 786.85 | 782.54 | 1.092 | 0.9956
x1 = 0.0502 | 786.37 | 782.01 | 1.073 | 0.9782
x1 = 0.0583 | 785.66 | 781.32 | 1.049 | 0.9582
x1 = 0.07 | 784.87 | 780.51 | 1.023 | 0.9337
x1 = 0.0801 | 784.2 | 779.82 | 1 | 0.9146
x1 = 0.0861 | 783.96 | 779.52 | 0.9912 | 0.9061
x1 = 0.1009 | 782.99 | 778.56 | 0.9622 | 0.8805
x1 = 0.154 | 779.59 | 775.08 | 0.8624 | 0.792
x1 = 0.2006 | 776.77 | 772.21 | 0.7889 | 0.7263
x1 = 0.2471 | 774.06 | 769.46 | 0.7261 | 0.6707
x1 = 0.2975 | 771.22 | 766.56 | 0.6675 | 0.6182
x1 = 0.3487 | 768.46 | 763.75 | 0.6166 | 0.5722
x1 = 0.3976 | 765.94 | 761.16 | 0.5761 | 0.5357
x1 = 0.4532 | 763.17 | 758.36 | 0.5354 | 0.4987
x1 = 0.5007 | 760.96 | 756.08 | 0.5062 | 0.4708
x1 = 0.5505 | 758.76 | 753.83 | 0.4798 | 0.4482
x1 = 0.5998 | 756.62 | 751.67 | 0.4564 | 0.426
x1 = 0.6484 | 754.48 | 749.51 | 0.4361 | 0.4083
x1 = 0.6995 | 752.35 | 747.32 | 0.4156 | 0.39
x1 = 0.749 | 750.35 | 745.3 | 0.3998 | 0.3751
x1 = 0.7995 | 748.36 | 743.27 | 0.3844 | 0.3616
x1 = 0.8496 | 746.44 | 741.31 | 0.3715 | 0.3488
x1 = 0.9009 | 744.51 | 739.34 | 0.3589 | 0.3384
x1 = 0.9093 | 744.2 | 739.04 | 0.3573 | 0.3382
x1 = 0.9166 | 743.9 | 738.72 | 0.3534 | 0.3338
x1 = 0.9299 | 743.35 | 738.18 | 0.352 | 0.3326
x1 = 0.9398 | 742.96 | 737.79 | 0.35 | 0.3294
x1 = 0.9501 | 742.54 | 737.38 | 0.348 | 0.3264
x1 = 0.9597 | 742.15 | 736.97 | 0.3458 | 0.3256
x1 = 0.968 | 741.84 | 736.66 | 0.3444 | 0.3247
x1 = 0.9802 | 741.35 | 736.15 | 0.3418 | 0.3226
x1 = 0.9868 | 741.1 | 735.92 | 0.3421 | 0.3209
